Laboratory results published in patent US20170239237A1, “PYRROLOQUINOLINE DERIVATIVES AS 5-HT6 ANTAGONISTS, PREPARATION METHOD AND USE THEREOF” (Uniwersytet Jagiellonski, priority 2013, published 2017).
Read-outs that look alike come from different tables or passages of the source. Marks after values point to notes of the source that are not given here.

Columns and labels:
Wistar rats [1] = assay: Forced swim test (FST) in Wistar rats; format: in vivo, rat; conditions: for Minimum effective dose, forced swim test in rats (potential antidepressant properties): IP, 60 minutes before the test, Wistar rats
Procedure: (§1) For intraperitoneal (i.p.) administration: to the desired quantity of the solid compound in a glass beaker, required volume of sterile water for injection was added and swirled with glass bar until complete dissolution of the compound.
(§2) Animals. Male Wistar rats weighing 220-250 g were used in the test. […] All animals were kept in an environmentally controlled rooms (ambient temperature 22±2° C; relative humidity 50-60%; 12:12 light:dark cycle, lights on at 8:00). They were allowed to acclimatize with the environment for one week before commencement of the experiments. Standard laboratory food (Ssniff M-Z) and filtered water were freely available. The experiments were conducted in the light phase between 09.00 and 14.00 hours. 1 h before the start of the experiment, rats were transferred to the experimental room for acclimation.
Apparatus and procedure. […] On the first day of experiment, the animals were gently individually placed in Plexiglas cylinders (40 cm high, 18 cm in diameter) containing 15 cm of water maintained at 25° C. for 15 min. Upon removal from water, the rats were placed in a Plexiglas box for 30 min under a 60-W bulb to dry off. On the following day, the rats were placed again in the cylinder and the total duration of immobility was recorded throughout the 5-min test period. Fresh water was used for each animal.
(§3) Experimental design. The compounds were administered IP, 60 minutes before the test.
(§4) Drugs. The experimental compounds were dissolved in the distilled water. All compounds were administrated in the volume of 2 ml/kg.

Wistar rats [2] = assay: Conflict drinking test (Vogel test) in Wistar rats; format: in vivo, rat; conditions: for Minimum effective dose, conflict drinking (Vogel test) in rats (potential anxiolytic properties): IP, 60 minutes before the test, Wistar rats; for active dose in the conflict drinking test (Vogel test), increasing number of licks and shocks received: rats
Procedure: as §1, §2
Apparatus and procedure. […] Experimental chambers were connected to PC software by control chassis and electric shocks' generator. On the first day of the experiment, the rats were adapted to the test chambers for 10 min. […] Afterwards, they were allowed a 30-min free-drinking session in their home cages. […] Recording data started immediately after the first lick and every 20 licks rats were punished with an electric shock (0.5 mA, lasting 1 s). The impulses were released via the spout of the drinking bottles. If a rat was drinking when an impulse was released, it received a shock. The number of licks and the number of shocks received during a 5-min experimental session was recorded automatically.
as §3, §4

M1 receptors = target: T1, M1 receptors (Homo sapiens, UniProt P11229); assay: biochemical; conditions: read-out: % inhibition of control binding at 10^−6M, M1
T1 sequence (P11229 1-460): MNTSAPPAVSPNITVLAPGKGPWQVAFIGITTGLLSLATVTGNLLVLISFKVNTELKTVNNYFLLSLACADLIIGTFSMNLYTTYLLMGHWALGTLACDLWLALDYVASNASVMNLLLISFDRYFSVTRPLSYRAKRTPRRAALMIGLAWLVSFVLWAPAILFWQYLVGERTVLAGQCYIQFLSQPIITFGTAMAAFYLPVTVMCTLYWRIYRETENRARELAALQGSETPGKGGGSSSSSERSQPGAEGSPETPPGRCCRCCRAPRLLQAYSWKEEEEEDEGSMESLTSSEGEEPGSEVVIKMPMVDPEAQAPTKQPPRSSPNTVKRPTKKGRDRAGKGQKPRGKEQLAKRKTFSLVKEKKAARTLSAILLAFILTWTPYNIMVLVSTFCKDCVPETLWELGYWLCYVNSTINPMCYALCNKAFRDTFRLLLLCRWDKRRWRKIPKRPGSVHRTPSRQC
Procedure: (§5) Each compound was tested in duplicate at 10^-6 M concentration.

5-HT2C receptors = target: T2, 5-HT2C receptors (Homo sapiens, UniProt P28335); assay: biochemical; conditions: read-out: % inhibition of control binding at 10^−6M, 5-HT2C
T2 sequence (P28335 33-458): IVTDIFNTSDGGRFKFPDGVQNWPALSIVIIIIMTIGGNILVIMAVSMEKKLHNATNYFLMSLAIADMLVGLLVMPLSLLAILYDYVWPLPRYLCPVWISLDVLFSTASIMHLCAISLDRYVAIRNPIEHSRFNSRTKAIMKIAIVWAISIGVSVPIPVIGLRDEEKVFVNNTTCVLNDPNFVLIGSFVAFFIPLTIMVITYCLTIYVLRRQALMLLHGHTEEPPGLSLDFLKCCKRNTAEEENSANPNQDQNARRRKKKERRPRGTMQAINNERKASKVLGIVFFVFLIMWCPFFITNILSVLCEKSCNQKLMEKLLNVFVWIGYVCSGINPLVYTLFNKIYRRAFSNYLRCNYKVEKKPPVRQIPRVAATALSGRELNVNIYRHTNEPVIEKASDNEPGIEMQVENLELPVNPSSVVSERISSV
Procedure: as §5

D3 receptors = D3 receptors (Homo sapiens, UniProt P35462); assay: biochemical; conditions: read-out: % inhibition of control binding at 10^−6M, D3
Procedure: as §5

5-HT7 receptor = 5-HT7 receptor (Homo sapiens, UniProt P34969); assay: Radioligand binding, 5-HT7 ([3H]-5-CT displacement)
dopamine D2L receptor = dopamine D2L receptor (Homo sapiens, UniProt P14416); assay: Radioligand binding, D2 ([3H]-raclopride displacement)
5-HT1A receptor = target: T3, 5-HT1A receptor (Homo sapiens, UniProt P08908); assay: Radioligand binding, 5-HT1A ([3H]-8-OH-DPAT displacement)
T3 sequence (P08908 1-422): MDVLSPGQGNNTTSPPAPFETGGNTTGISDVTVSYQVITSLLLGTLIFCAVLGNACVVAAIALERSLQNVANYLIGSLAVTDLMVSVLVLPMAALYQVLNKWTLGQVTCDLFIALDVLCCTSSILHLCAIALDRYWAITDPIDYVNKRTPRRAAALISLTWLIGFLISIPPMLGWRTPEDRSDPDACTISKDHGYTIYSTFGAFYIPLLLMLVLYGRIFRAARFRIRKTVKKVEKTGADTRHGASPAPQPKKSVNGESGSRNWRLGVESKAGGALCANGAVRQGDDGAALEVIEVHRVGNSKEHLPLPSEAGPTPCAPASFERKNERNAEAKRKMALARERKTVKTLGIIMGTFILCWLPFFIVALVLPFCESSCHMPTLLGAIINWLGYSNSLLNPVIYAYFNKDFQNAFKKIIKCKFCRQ

Sprague-Dawley rats = assay: Novel object recognition (NOR) test in Sprague-Dawley rats, PCP-induced deficit; format: in vivo, rat
Procedure: Rats were allowed to acclimatize for at least 7 days before the start of the experimental procedure. During this week animals were handled for at least 3 times. Behavioral testing was carried out during the light phase of the light/dark cycle. At least 1 h before the start of the experiment, rats were transferred to the experimental room for acclimation.
Apparatus and procedure. Rats were tested in a dimly lit (25 lx) “open field” apparatus made of a dull gray plastic (66×56×30 cm). After each measurement, the floor was cleaned and dried.
The procedure lasting for 2 days consisted of the habituation to the test arena (without any objects) for 5 min. The test session comprising of two trials separated by an inter-trial interval (ITI) of 1 h was carried out on the next day. […]
Exploration time of the objects and the distance traveled were measured using the Any-maze® video tracking system. Based on exploration time (E) of two objects during T2, discrimination index (DI) was calculated according to the formula: […]

5-HT6 receptor [3] = target: T4, 5-HT6 receptor (Homo sapiens, UniProt P50406); assay: Radioligand binding, 5-HT6 ([3H]-LSD displacement); conditions: for displacement % at 10^−6M, 5-HT6: values marked c in the 5-HT6 column
5-HT6 receptor [4] = target: T4, 5-HT6 receptor; assay: CHO-human-5HT6-Aequorin functional assay (ago-/antagonism); conditions: test concentration not given; for % inhibition of control agonist response: agonist effect, CHO-human-5HT6-Aequorin cells; for % inhibition of control antagonist response: antagonist effect vs 10^-6 M α-methylserotonin induced luminescence
H1 receptors = H1 receptors (Homo sapiens, UniProt P35367); assay: biochemical; conditions: read-out: % inhibition of control binding at 10^−6M, H1
Procedure: as §5

[5] = read-out: Ki 5-HT1A, cloned human receptor in HEK293, three independent experiments, SEM ± 22%

T4 sequence (P50406 whole entry): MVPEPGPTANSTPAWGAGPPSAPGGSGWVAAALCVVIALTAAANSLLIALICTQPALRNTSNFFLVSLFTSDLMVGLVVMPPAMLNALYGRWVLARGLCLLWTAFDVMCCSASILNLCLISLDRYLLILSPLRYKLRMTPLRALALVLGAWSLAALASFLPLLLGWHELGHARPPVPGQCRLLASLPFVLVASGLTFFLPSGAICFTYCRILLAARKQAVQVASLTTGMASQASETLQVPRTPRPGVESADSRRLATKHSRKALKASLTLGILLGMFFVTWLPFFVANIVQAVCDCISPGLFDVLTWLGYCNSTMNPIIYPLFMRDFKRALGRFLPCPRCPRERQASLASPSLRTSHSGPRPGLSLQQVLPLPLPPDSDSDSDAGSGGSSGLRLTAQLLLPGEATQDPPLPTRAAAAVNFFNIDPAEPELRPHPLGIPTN
Sequence of 5-HT7 receptor (P34969 1-432 limits assumed): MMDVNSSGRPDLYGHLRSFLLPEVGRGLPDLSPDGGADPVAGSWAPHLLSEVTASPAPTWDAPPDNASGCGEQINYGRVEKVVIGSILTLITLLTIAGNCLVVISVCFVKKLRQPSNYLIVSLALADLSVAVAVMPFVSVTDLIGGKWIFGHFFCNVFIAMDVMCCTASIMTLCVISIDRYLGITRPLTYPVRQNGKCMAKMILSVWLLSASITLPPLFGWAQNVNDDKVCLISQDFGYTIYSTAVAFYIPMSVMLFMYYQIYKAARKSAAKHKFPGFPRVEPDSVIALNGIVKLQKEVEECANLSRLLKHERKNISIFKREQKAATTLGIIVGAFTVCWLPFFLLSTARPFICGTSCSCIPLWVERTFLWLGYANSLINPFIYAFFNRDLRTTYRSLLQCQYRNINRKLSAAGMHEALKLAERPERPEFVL
Sequence of D3 receptors (P35462 whole entry): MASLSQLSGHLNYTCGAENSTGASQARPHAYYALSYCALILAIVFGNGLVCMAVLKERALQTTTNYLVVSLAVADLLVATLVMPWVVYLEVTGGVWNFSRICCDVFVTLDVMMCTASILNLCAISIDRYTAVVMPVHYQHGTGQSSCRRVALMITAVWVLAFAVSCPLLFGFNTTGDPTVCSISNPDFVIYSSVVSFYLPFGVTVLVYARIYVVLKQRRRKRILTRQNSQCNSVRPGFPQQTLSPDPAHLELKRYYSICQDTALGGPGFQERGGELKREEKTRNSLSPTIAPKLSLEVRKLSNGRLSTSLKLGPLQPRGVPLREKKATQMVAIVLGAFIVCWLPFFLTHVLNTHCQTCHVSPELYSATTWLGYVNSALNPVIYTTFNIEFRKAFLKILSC
Sequence of dopamine D2L receptor (P14416 whole entry): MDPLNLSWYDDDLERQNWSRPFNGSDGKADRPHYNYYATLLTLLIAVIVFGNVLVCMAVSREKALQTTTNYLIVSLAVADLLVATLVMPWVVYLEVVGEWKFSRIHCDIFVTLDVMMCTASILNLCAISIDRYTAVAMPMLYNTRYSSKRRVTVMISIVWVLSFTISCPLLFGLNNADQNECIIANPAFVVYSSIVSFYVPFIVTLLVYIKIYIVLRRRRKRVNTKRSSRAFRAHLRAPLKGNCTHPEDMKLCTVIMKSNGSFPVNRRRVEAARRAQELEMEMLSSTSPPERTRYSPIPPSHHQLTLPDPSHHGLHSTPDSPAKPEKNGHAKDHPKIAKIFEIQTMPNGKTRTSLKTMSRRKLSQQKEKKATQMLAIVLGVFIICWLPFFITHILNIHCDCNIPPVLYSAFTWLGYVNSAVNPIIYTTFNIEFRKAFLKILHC
Sequence of H1 receptors (P35367 whole entry): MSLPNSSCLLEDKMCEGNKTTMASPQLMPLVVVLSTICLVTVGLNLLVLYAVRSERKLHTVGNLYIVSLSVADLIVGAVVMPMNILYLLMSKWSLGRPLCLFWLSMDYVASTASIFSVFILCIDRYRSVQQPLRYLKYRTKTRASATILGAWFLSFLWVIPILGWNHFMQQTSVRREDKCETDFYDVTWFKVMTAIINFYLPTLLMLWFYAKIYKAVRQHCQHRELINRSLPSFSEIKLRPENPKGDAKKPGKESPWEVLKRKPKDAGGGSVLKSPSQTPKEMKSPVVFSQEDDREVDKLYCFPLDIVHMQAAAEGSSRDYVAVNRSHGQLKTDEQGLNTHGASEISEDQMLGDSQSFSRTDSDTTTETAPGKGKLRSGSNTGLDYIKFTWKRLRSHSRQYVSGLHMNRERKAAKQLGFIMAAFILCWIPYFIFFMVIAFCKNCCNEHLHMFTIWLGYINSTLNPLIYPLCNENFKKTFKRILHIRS

| Compound | Minimum effective dose, forced swim test in rats (potential antidepressant properties) (Wistar rats [1]) | Minimum effective dose, conflict drinking (Vogel test) in rats (potential anxiolytic properties) (Wistar rats [2]) | Ki (5-HT7 receptor) | Ki (dopamine D2L receptor) | Ki (5-HT1A receptor) | % inhibition of control agonist response (5-HT6 receptor [4]) | % inhibition of control antagonist response (5-HT6 receptor [4]) | also measured |
| --- | --- | --- | --- | --- | --- | --- | --- | --- |
| O=S(=O)(c1cccc(Cl)c1)n1ccc2c(N3CCNCC3)nc3ccccc3c21 [Compound 29, 1-((3-chlorophenyl)sulfonyl)-4-(piperazin-1-yl)-1H-pyrrolo[3,2-c]quinoline] | >10 mg/kg | 10 mg/kg |  |  |  |  |  | melting point: 161 to 163 °C; inhibition at 1 µM (M1 receptors): -11%; inhibition at 1 µM (5-HT2C receptors): 13%; inhibition at 1 µM (D3 receptors): 66%; Ki (5-HT7 receptor; read-out: Ki 5-HT7): 1790 nM; Ki (dopamine D2L receptor; read-out: Ki D2, cloned human receptor in HEK293, three independent experiments, SEM ± 22%): 1340 nM; Ki (5-HT1A receptor; [5]): 773 nM |
| COc1ccc(NS(=O)(=O)c2sc3ccc(Cl)cc3c2C)cc1N1CCNCC1 [SB-271046, reference compound] |  |  |  |  |  |  |  | effective dose in the forced swim test (reference compounds) (Wistar rats [1]; rats, antidepressant-like activity, imipramine increased climbing time): 10 mg/kg; active dose in the conflict drinking test (Vogel test), increasing number of licks and shocks received (Wistar rats [2]): ≤ 10 mg/kg; dose effective against PCP-induced cognitive deficit in NOR test (Sprague-Dawley rats): 1 mg/kg |
| CN1C(=O)CN=C(c2ccccc2)c2cc(Cl)ccc21 [diazepam, reference compound] |  |  |  |  |  |  |  | active dose in the conflict drinking test (Vogel test), increasing number of licks and shocks received (Wistar rats [2]): 5 to 10 mg/kg |
| O=S(=O)(c1cccc(F)c1)n1ccc2c(N[C@@H]3CCNC3)nc3ccccc3c21 [Compound 10, (R)-1-((3-fluorophenyl)sulfonyl)-N-(pyrrolidin-3-yl)-1H-pyrrolo[3,2-c]quinolin-4-amine] |  | 10 mg/kg |  |  |  |  |  | displacement % at 10^−6M, 5-HT6 (5-HT6 receptor [3]): 100^c % |
| O=S(=O)(c1cccc(Cl)c1)n1ccc2c(N[C@H]3CCNC3)nc3ccccc3c21 [Compound 6, (S)-1-((3-chlorophenyl)sulfonyl)-N-(pyrrolidin-3-yl)-1H-pyrrolo[3,2-c]quinolin-4-amine] | 10 mg/kg | 3 mg/kg | 4990 nM | 1010 nM | 2350 nM |  |  | inhibition at 1 µM (M1 receptors): 9%; inhibition at 1 µM (5-HT2C receptors): 21%; inhibition at 1 µM (D3 receptors): 69% |
| Nc1ccc(S(=O)(=O)n2ccc3c(N4CCNCC4)nc4ccccc4c32)cc1 [Compound 42, 1-(4-(aminophenyl)sulfonyl)-4-(piperazin-1-yl)-1H-pyrrolo[3,2-c]quinoline] | 0.1 mg/kg | 3 mg/kg |  |  |  |  |  | displacement % at 10^−6M, 5-HT6 (5-HT6 receptor [3]): 97^c % |
| O=S(=O)(c1cccc2cccnc12)n1ccc2c(N3CCNCC3)nc3ccccc3c21 [Compound 45, 1-(quinolin-8-ylsulfonyl)-4-(piperazin-1-yl)-1H-pyrrolo[3,2-c]quinoline] |  |  | 7810 nM | 6340 nM | 922 nM | 7.8% | 75.8% | Ki (5-HT6 receptor [3]): 5 nM |
| O=S(=O)(c1cccc2ccccc12)n1ccc2c(N3CCNCC3)nc3ccccc3c21 [Compound 43, 1-(naphthalen-1-ylsulfonyl)-4-(piperazin-1-yl)-1H-pyrrolo[3,2-c]quinoline] |  |  | 1990 nM | 4010 nM | 711 nM |  |  | melting point: 158 to 160 °C |
| O=S(=O)(c1cccc(Cl)c1)n1ccc2c(N[C@@H]3CCNC3)nc3ccccc3c21 [Compound 7, (R)-1-((3-chlorophenyl)sulfonyl)-N-(pyrrolidin-3-yl)-1H-pyrrolo[3,2-c]quinolin-4-amine] | 3 mg/kg | 10 mg/kg | 3940 nM | 754 nM | 2680 nM |  |  | inhibition at 1 µM (H1 receptors): 17%; inhibition at 1 µM (M1 receptors): -1%; inhibition at 1 µM (5-HT2C receptors): 2%; inhibition at 1 µM (D3 receptors): 82% |
| CC(C)c1ccc(S(=O)(=O)n2ccc3c(N4CCNCC4)nc4ccccc4c32)cc1 [Compound 40, 1-((4-isopropylphenyl)sulfonyl)-4-(piperazin-1-yl)-1H-pyrrolo[3,2-c]quinoline] |  |  | 3260 nM | 2540 nM | 148 nM | −5.2% | 65.3% | Ki (5-HT6 receptor [3]; read-out: Ki 5-HT6, cloned human receptor in HEK293, three independent experiments, SEM ± 22%): 14 nM |
| O=S(=O)(c1cccc2ccccc12)n1ccc2c(NC3CCNC3)nc3ccccc3c21 (stereo not drawn) [Compound 21, 1-(naphthalen-1-ylsulfonyl)-N-(pyrrolidin-3-yl)-1H-pyrrolo[3,2-c]quinolin-4-amine] |  |  | 1420 nM | 2260 nM | 5330 nM | 10.6% | 60.0% | Ki (5-HT6 receptor [3]): 19 nM |
| O=S(=O)(c1cccc(F)c1)n1ccc2c(N3CCNCC3)nc3ccccc3c21 [Compound 30, 1-((3-fluorophenyl)sulfonyl)-4-(piperazin-1-yl)-1H-pyrrolo[3,2-c]quinoline] | 10 mg/kg | 10 mg/kg |  |  |  |  |  | Ki (5-HT1A receptor; [5]): 437 nM |
| O=S(=O)(c1ccc(F)cc1)n1ccc2c(NC3CCNC3)nc3ccccc3c21 (stereo not drawn) [Compound 11, 1-((4-fluorophenyl)sulfonyl)-N-(pyrrolidin-3-yl)-1H-pyrrolo[3,2-c]quinolin-4-amine] |  |  | 6880 nM | 664 nM | 5830 nM | 4.8% | 51.8% | Ki (5-HT6 receptor [3]): 18 nM |
